Consider 9 substances from PMC10449817, “Different solubilizing ability of cyclodextrin derivatives for cholesterol in Niemann–Pick disease type C treatment” (Clinical and Translational Medicine, 2023).

For data set [1], the system named is Npc1‐null Chinese hamster ovary cells. Kind of data set: Measurement of intracellular cholesterol in NPC model cells. It counts as cell-based. The note with it: 24 h exposure; for EC50: concentrations up to 1 mM, read-out: EC50, reduction of UC levels accumulated in Npc1‐null cells. On the procedure: WT and Npc1‐null Chinese hamster ovary cells developed previously[34] were used. The cells were grown in a culture medium consisting of a 1:1 mixture of Dulbecco's modified Eagle's medium (DMEM) and F‐12 (Life Technologies) supplemented with 10% fetal bovine serum (FBS; Thermo Fisher Scientific, Inc.). The cells were maintained at 37°C in a saturated humidity atmosphere of 95% air and 5% CO2.
The measurement of intracellular cholesterol levels was performed in accordance with our previously developed method[35] with minor modification. Cells were pre‐incubated for 24 h and then exposed to a medium containing CD derivatives for 24 h. Thereafter, the cells were lysed, and aliquots were taken for cholesterol and protein measurements. Cholesterol was extracted from the cell lysate using chloroform, 2‐propanol and NP‐40 substitute (7:11:0.1), and the solution was then centrifuged (15 000 × g, 10 min, 4°C). The chloroform layer was evaporated, and the residues were dissolved in a solvent consisting of 2‐propanol, polyoxyethylene alkyl ether and polyoxyethylene lauryl ether (87:10:3). The dissolved samples were divided into two portions—one was incubated with esterase to measure total cholesterol (TC), and the other was incubated without esterase to measure UC. The cholesterol content was measured with a Determiner L FC kit. The EC level was calculated by deducting the UC level from the TC level. Intracellular cholesterol content was normalized by the total protein concentration as determined with a Pierce BCA Protein Assay Kit (Thermo Fisher Scientific, Inc.).

In data set [2] the test system is Npc1 homozygous mutant (Npc1 ^−/−) mice. As to the kind of experiment: Intracerebroventricular administration of CD derivatives in NPC model mice. The note with it: ICV 21.4 μmol/kg once at 4 weeks of age. It counts as in vivo. On the procedure: (§1) Male and female Npc1 homozygous mutant (BALB/cNctr‐Npc1 ^m1N, Npc1 ^−/−) mice,[36] kindly donated by Prof. Kousaku Ohno and Dr. Katsumi Higaki, were used as a murine model of NPC. Age‐matched WT mice were used as controls. The mice were bred and housed under specific pathogen‐free conditions in the Center for Animal Resources and Development, Kumamoto University. The mice were housed in cages in a room under controlled temperature (24°C) and a 12/12‐h light/dark cycle, and provided with free access to food and water. The animal experiments were performed at the Department of Clinical Chemistry and Informatics, Graduate School of Pharmaceutical Sciences, Kumamoto University. CD derivatives were dissolved in distilled water, and the osmotic pressure was adjusted with sodium chloride to near physiological osmolality. The pH was adjusted to 7.4 using sodium hydroxide, and the solution was filtered with an Advantec DISMIC‐13CP 0.45‐μm filter (Toyo Roshi Kaisha, Ltd.). […] The survival times were recorded based on the day when the endpoint was reached, defined as death or the inability to consume food or drink independently.
Organ samples were fixed in 4% buffered paraformaldehyde immediately after collection and then embedded in paraffin. […] Histopathological changes were photographed and analyzed by microscopy (BioRevo BZ‐9000; Keyence Co.). […]

Data set [3] relates to WT mice. As to the kind of experiment: Systemic biocompatibility of subcutaneous CD derivatives in mice. It counts as in vivo. The note with it: SC 5.7 mmol/kg, 24 h later. How it is done:
as §1
Organ samples were fixed in 4% buffered paraformaldehyde immediately after collection and then embedded in paraffin. […] Histopathological changes were photographed and analyzed by microscopy (BioRevo BZ‐9000; Keyence Co.).

Data set [4] in a line: UC solubility analysis; binding constants of 1:1 and 2:1 CD:UC complexes. It counts as physicochemical. The note with it: as a function of CD concentration, 37°C. On the procedure:
An excess of UC (10 mg) was added to each concentration of CD derivative in distilled water and shaken at 37°C for 3 h at 180 rpm. After equilibrium was attained (Figure S1), an aliquot was filtered through a Millex‐HP PES 0.45‐μm filter (Merck Millipore Ltd.). The filtrate was mixed and shaken for 10 min with an appropriate volume of chloroform/methanol (2:1, v/v). After centrifugation (1500 × g, 10 min, 4°C), the chloroform phase was recovered and evaporated. The residue was dissolved in a solvent consisting of 2‐propanol, polyoxyethylene alkyl ether and polyoxyethylene lauryl ether (87:10:3), and the concentration of UC was measured with a Determiner L FC kit (Kyowa Hakko Kirin Co., Ltd.) on a microplate reader (Tecan Group, Ltd.). Three replicate samples were performed. The binding constants of the 1:1 and the 2:1 CD:UC complexes were calculated according to a previously established method.[26]

For data set [5], the system named is WT mice. As to the kind of experiment: Auditory brainstem response (ABR) after CD derivatives in mice. Particulars: 1 week after, 4-32 kHz. It counts as in vivo. How it is done:
Male and female Npc1 homozygous mutant (BALB/cNctr‐Npc1 ^m1N, Npc1 ^−/−) mice,[36] kindly donated by Prof. Kousaku Ohno and Dr. Katsumi Higaki, were used as a murine model of NPC. Age‐matched WT mice were used as controls. The mice were bred and housed under specific pathogen‐free conditions in the Center for Animal Resources and Development, Kumamoto University. The mice were housed in cages in a room under controlled temperature (24°C) and a 12/12‐h light/dark cycle, and provided with free access to food and water. The animal experiments were performed at the Department of Clinical Chemistry and Informatics, Graduate School of Pharmaceutical Sciences, Kumamoto University. CD derivatives were dissolved in distilled water, and the osmotic pressure was adjusted with sodium chloride to near physiological osmolality. The pH was adjusted to 7.4 using sodium hydroxide, and the solution was filtered with an Advantec DISMIC‐13CP 0.45‐μm filter (Toyo Roshi Kaisha, Ltd.). Intracerebroventricular administration was performed using stereotaxic instruments (IMPACT‐1000C and KDS 310 Plus; Muromachi Kikai Co., Ltd.) under anaesthesia (medetomidine:midazolam:butorphanol, 0.3:4.0:5.0 mg/kg, intraperitoneally). The subcutaneous injection volume was 20 mL/kg for all experimental groups. The survival times were recorded based on the day when the endpoint was reached, defined as death or the inability to consume food or drink independently.
Auditory thresholds were measured using auditory brainstem response (ABR) System 3 (Tucker‐Davis Technologies). The animals were anaesthetized by intraperitoneal administration of xylazine and ketamine‐HCl in saline. Electrodes were placed beneath the pinna of the treated ear and at the vertex just below the surface of the skin, and the ground electrode was then placed under the contralateral ear. An average of 512 sweeps was calculated at 4, 8, 12, 20 and 32 kHz. The stimulus levels near the threshold were varied in 5‐dB steps, and the threshold was defined as the lowest level at which waves in the ABR could be clearly detected by visual inspection.

Data set [6] concerns α‐glucosidase. Particulars: cited from earlier work.

2‐hydroxybutyl‐β‐CD [HB‐β‐CD]: the EC50 (in general, the concentration at which the effect is half-maximal) in data set [1] worked out at 11.6 µM.
As to 2‐hydroxybutyl‐γ‐CD [HB‐γ‐CD], the EC50 in data set [1] worked out at 11.5 µM. In data set [2], the body weight decline result is “mitigated”; the “lifespan and median survival time” value is “drastically prolonged”. In addition, the “total protein concentration in BALF” value in data set [3] is “significant increases”.
As to 2‐hydroxypropyl‐α‐CD [HP‐α‐CD], in data set [4], the “UC solubilization profile in aqueous solution” value was “negligible”. Besides, in data set [1] (Npc1‐null cells, above 0.1 mM), the EC/TC ratio entry was “significantly diminished”. Further, the “intracellular UC levels” value in data set [1] (Npc1‐null cells, concentration‐dependent, 1 mM) is “significantly diminished”. Besides, the ABR threshold result in data set [5] (single ICV 21.4 μmol/kg) and in data set [5] (single SC 5.7 mmol/kg) was “did not cause any change” throughout.
For the substance “2‐hydroxypropyl‐β‐CD [HP‐β‐CD, reference compound]”, the EC50 in data set [1] is 40.3 µM. Also, the ABR threshold entry in data set [5] (single SC 5.7 mmol/kg) was “significantly increased”.
Take 2‐hydroxypropyl‐γ‐CD [HP‐γ‐CD]: the EC50 in data set [1] worked out at 69.6 µM. For the same substance, the ABR threshold entry in data set [5] (single SC 5.7 mmol/kg) is reported as “only a moderate increase”.
As to mono‐6‐O‐α‐glucosyl‐β‐CD [G1‐β‐CD], the EC50 in data set [1] was 59.6 µM.
For mono‐6‐O‐α‐glucosyl‐γ‐CD [G1‐γ‐CD], in data set [1], the EC50 is 156 µM.
On to mono‐6‐O‐α‐maltosyl‐β‐CD [G2‐β‐CD], for which the EC50 in data set [1] came to 56 µM. In addition, the “biodegradation to G1‐β‐CD in whole blood” value in data set [6] is “rapidly biodegraded”.
As for mono‐6‐O‐α‐maltosyl‐γ‐CD [G2‐γ‐CD], the concentration giving a half-maximal response (EC50) in data set [1] is 182 µM.
